Molecules are shown by their SMILES. A value given as a limit tells only on which side of the number the result lay.

What all share (type): cell-based
Test [1] concerns Nonstructural protein 5A (Hepatitis C virus), Q5L478 [UNDEFINED MUTATION]. The experiment in a line: Inhibition of HCV genotype-1a NS5A L31V mutant infected in human HuH7 cells by luciferase reporter gene assay. Particulars: Hepatitis C virus subtype 1a; Huh-7.
The subject of test [2] is Huh-7. The experiment in a line: Inhibition of HCV genotype-3a NS5A infected in human HuH7 cells by luciferase reporter gene assay. Particulars: Hepatitis C virus subtype 3a.
Test [3] concerns Huh-7. The experiment in a line: Inhibition of HCV genotype-4a NS5A infected in human HuH7 cells by luciferase reporter gene assay. The conditions noted are these: Hepatitis C virus subtype 4a.
Test [4] concerns Huh-7. Briefly: Inhibition of HCV genotype-2b NS5A harboring methionine at position 31 infected in human HuH7 cells by luciferase reporter gene assay. Particulars: Hepatitis C virus subtype 2b.
Test [5] deals with Huh-7. Briefly: Inhibition of HCV genotype-1a NS5A infected in human HuH7 cells by luciferase reporter gene assay. The conditions noted are these: Hepatitis C virus subtype 1a.
Test [6] concerns T1, Nonstructural protein 5A (Hepatitis C virus), Q5L478 [Y93H].
T1 sequence (whole entry): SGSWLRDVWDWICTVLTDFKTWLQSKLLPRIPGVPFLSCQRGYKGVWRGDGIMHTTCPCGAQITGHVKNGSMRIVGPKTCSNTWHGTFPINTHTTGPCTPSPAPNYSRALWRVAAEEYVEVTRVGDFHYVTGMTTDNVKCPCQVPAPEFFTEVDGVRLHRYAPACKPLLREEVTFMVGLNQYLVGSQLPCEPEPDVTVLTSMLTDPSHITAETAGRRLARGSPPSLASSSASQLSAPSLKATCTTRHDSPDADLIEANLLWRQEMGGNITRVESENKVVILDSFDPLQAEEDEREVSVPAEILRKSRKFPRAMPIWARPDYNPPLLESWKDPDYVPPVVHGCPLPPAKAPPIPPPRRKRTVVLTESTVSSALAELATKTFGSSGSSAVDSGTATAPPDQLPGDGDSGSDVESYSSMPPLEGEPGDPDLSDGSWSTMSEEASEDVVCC
The experiment in a line: Inhibition of HCV genotype-1a NS5A Y93H mutant infected in human HuH7 cells by luciferase reporter gene assay. Particulars: Hepatitis C virus subtype 1a; Huh-7.

With `COCc1ncc(C2Oc3cc(-c4cnc([C@@H]5CCCN5C(=O)[C@@H](NC(=O)OC)C(C)C)[nH]4)cc(F)c3-c3cc4cc(-c5cnc([C@@H]6CCCN6C(=O)[C@@H](NC(=O)OC)C(C)C)[nH]5)ccc4n32)s1` (stereo partly specified), the EC90 came to 0.017 nM in test [1]; 0.007 nM in test [2]; 0.003 nM in test [3]; 0.12 nM in test [4]; 0.002 nM in test [5]; 0.04 nM in test [6].
For `COC(=O)N[C@H](C(=O)N1CCC[C@H]1c1ncc(-c2cc(F)c3c(c2)OC(c2cc(C4CC4)cs2)n2c-3cc3cc(-c4cnc([C@@H]5CCCN5C(=O)[C@@H](NC(=O)OC)C(C)C)[nH]4)ccc32)[nH]1)C(C)C` (stereo partly specified), the EC90 was 0.028 nM in test [1]; 0.008 nM in test [2]; 1.6 nM in test [4]; under 0.002 nM in test [5]; 1.74 nM in test [6].
With `COC(=O)N[C@H](C(=O)N1CCC[C@H]1c1ncc(-c2cc(F)c3c(c2)OC(c2nc(C4CC4)cs2)n2c-3cc3cc(-c4cnc([C@@H]5CCCN5C(=O)[C@@H](NC(=O)OC)C(C)C)[nH]4)ccc32)[nH]1)C(C)C` (stereo partly specified), the EC90 was 0.073 nM in test [2], 4.6 nM in test [4], 0.002 nM in test [5] and 2.6 nM in test [6].
Take `COC(=O)N[C@H](C(=O)N1CCC[C@H]1c1ncc(-c2cc(F)c3c(c2)OC(c2sc(C4CC4)cc2F)n2c-3cc3cc(-c4cnc([C@@H]5CCCN5C(=O)[C@@H](NC(=O)OC)C(C)C)[nH]4)ccc32)[nH]1)C(C)C` (stereo partly specified): the EC90 amounted to 0.008 nM in test [2]; 0.003 nM in test [3]; 0.68 nM in test [4]; 0.002 nM in test [5]; 0.74 nM in test [6].
For the compound `COC(=O)N[C@H](C(=O)N1CCC[C@H]1c1ncc(-c2cc(F)c3c(c2)OC(c2ncc(C4CC4)s2)n2c-3cc3cc(-c4cnc([C@@H]5CCCN5C(=O)[C@@H](NC(=O)OC)C(C)C)[nH]4)ccc32)[nH]1)C(C)C` (stereo partly specified), the EC90 in test [1] was 0.017 nM; in test [4], 1.63 nM; in test [5], 0.005 nM; in test [6], 1 nM.
For `COC(=O)N[C@H](C(=O)N1CCC[C@H]1c1ncc(-c2cc(F)c3c(c2)OC(c2cnco2)n2c-3cc3cc(-c4cnc([C@@H]5CCCN5C(=O)[C@@H](NC(=O)OC)C(C)C)[nH]4)ccc32)[nH]1)C(C)C` (stereo partly specified), the EC90 was 0.25 nM in test [2], 14.1 nM in test [4], 0.06 nM in test [5] and 8.5 nM in test [6].
As to `COC(=O)N[C@H](C(=O)N1CCC[C@H]1c1ncc(-c2ccc3c(c2)cc2n3C(c3cc4ccccc4s3)Oc3cc(-c4cnc([C@@H]5C[C@@H](F)CN5C(=O)[C@@H](NC(=O)OC)C(C)C)[nH]4)ccc3-2)[nH]1)C(C)C` (stereo partly specified), the EC90 in test [1] turned out to be 0.53 nM; in test [2] it was 0.19 nM; in test [4], 3.4 nM; in test [5], 0.01 nM; in test [6], 1.1 nM.
For `COC(=O)N[C@H](C(=O)N1CCC[C@H]1c1ncc(-c2cc(F)c3c(c2)OC(c2cncs2)n2c-3cc3cc(-c4cnc([C@@H]5CCCN5C(=O)[C@@H](NC(=O)OC)C(C)C)[nH]4)ccc32)[nH]1)C(C)C` (stereo partly specified), the EC90 in test [2] came to 0.079 nM; in test [4] it was 2.47 nM; in test [5], 0.006 nM; in test [6] it was 1 nM.
Take `CCc1nnc(C2Oc3cc(-c4cnc([C@@H]5CCCN5C(=O)[C@@H](NC(=O)OC)C(C)C)[nH]4)cc(F)c3-c3cc4cc(-c5cnc([C@@H]6CCCN6C(=O)[C@@H](NC(=O)OC)C(C)C)[nH]5)ccc4n32)s1` (stereo partly specified): the EC90 in test [2] was 0.18 nM; in test [4], over 1.7 nM; in test [5], 0.016 nM; in test [6] it was 7.4 nM.
Consider `COC(=O)N[C@H](C(=O)N1CCC[C@H]1c1ncc(-c2cc(F)c3c(c2)OC(c2ccc(CC4CC4)s2)n2c-3cc3cc(-c4cnc([C@@H]5CCCN5C(=O)[C@@H](NC(=O)OC)C(C)C)[nH]4)ccc32)[nH]1)C(C)C` (stereo partly specified), for which the EC90 in test [1] was found to be 0.011 nM; in test [2], 0.004 nM; in test [3] it was 0.003 nM; in test [5], 0.003 nM; in test [6], 0.18 nM.
